{
  "source": "ChEMBL document CHEMBL4699649",
  "about": "“Design and Optimization of an Acyclic Amine Series of TRPV4 Antagonists by Electronic Modulation of Hydrogen Bond Interactions” (J Med Chem, 2020)",
  "key": {"[1]": {"target": "Transient receptor potential cation channel subfamily V member 4 (Homo sapiens, UniProt Q9HBA0)", "sequence (Q9HBA0 whole entry)": "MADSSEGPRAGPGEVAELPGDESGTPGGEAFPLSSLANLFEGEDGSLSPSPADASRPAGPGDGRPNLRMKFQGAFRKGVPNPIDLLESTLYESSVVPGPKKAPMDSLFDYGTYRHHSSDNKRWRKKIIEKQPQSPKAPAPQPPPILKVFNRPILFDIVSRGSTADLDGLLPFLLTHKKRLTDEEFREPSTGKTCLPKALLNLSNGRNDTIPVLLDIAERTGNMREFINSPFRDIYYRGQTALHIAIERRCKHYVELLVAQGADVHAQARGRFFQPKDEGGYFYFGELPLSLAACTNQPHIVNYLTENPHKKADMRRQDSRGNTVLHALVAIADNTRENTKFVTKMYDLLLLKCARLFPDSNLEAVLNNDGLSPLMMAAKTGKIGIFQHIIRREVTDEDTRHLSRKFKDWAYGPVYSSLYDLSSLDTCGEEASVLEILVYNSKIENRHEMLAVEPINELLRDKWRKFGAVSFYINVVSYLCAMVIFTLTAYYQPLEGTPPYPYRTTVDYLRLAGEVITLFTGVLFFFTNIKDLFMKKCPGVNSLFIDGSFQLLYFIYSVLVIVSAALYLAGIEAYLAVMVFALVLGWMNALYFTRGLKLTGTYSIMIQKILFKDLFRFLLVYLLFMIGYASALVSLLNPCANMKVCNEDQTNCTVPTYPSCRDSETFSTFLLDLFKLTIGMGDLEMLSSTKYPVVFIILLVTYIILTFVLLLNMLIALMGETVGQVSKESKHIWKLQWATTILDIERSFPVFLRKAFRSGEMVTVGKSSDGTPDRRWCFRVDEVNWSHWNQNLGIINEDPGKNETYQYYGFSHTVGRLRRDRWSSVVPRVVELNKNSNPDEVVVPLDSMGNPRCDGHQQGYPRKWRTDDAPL", "test": "Antagonist activity at human TRPV4 expressed in BHK or HEK MSR2 cells assessed as inhibition of TRPV4 agonist GSK634775 (EC80)-induced response incubated for 10 mins", "type": "cell-based"}, "[2]": {"test": "Solubility of the compound by CLND assay", "type": "physicochemical"}, "[3]": {"test": "Distribution coefficient, log D of the compound by chromatographic method", "type": "physicochemical", "settings": "octanol/water; call rule not given here"}, "[4]": {"test": "MRT in iv dosed rat", "type": "ADME, organism-based", "settings": "in vivo"}, "[5]": {"test": "Clearance in iv dosed rat", "type": "ADME, organism-based", "settings": "in vivo"}, "Cytochrome P450 3A4": {"target": "Cytochrome P450 3A4 (Homo sapiens, UniProt P08684)", "sequence (P08684 whole entry)": "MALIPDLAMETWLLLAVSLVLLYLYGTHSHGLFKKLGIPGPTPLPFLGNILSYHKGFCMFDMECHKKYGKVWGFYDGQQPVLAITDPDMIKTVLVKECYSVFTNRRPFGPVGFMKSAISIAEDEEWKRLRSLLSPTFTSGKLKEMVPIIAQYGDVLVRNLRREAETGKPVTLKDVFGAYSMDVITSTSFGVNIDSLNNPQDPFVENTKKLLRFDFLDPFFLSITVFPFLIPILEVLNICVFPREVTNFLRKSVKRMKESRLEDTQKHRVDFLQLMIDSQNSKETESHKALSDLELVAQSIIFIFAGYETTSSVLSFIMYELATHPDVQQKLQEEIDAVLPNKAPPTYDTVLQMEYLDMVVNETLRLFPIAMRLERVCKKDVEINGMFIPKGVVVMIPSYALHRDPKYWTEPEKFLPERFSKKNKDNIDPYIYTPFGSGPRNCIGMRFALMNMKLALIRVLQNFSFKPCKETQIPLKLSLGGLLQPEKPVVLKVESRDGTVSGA", "test": "Time dependent inhibition of recombinant human CYP3A4 expressed in bactosomes at 100 to 300 uM using 7-benzyloxy-4-(trifluoromethyl)-coumarin substrate in presence of NADPH-generating system incubated up to 15 mins by fluorescence based assay", "type": "ADME", "settings": "recombinant enzyme, 0.25 h, dose 100-300 µM"}, "[6]": {"test": "Oral bioavailability in rat", "type": "ADME, organism-based", "settings": "in vivo"}, "[7]": {"test": "Dose normalized AUC in orally dosed rat", "type": "ADME, organism-based", "settings": "in vivo, po"}, "[8]": {"test": "Fraction unbound in rat plasma", "type": "ADME, cell-free"}, "[9]": {"test": "Unbound clearance in iv dosed rat", "type": "ADME, organism-based", "settings": "in vivo"}, "[10]": {"test": "Cmax in rat", "type": "ADME", "settings": "in vivo"}, "[11]": {"test": "Volume of distribution at steady state in iv dosed rat", "type": "ADME, organism-based", "settings": "in vivo, read-out: Vdss"}},
  "data": [
    {"smiles": "N#Cc1ccc(OCC2(O)CCN(S(=O)(=O)c3ccc(Cl)cc3Cl)CC2)cc1F", "values": [
      {"measurement": "IC50", "setting": "[1]", "result": 0.1, "unit": "µM"},
      {"measurement": "solubility kinetic", "setting": "[2]", "result": 7.5, "unit": "µM"}
    ]},
    {"smiles": "N#Cc1ccc(OCC(O)CCNS(=O)(=O)c2ccc(Cl)cc2Cl)cc1F", "note": "(centres undefined)", "values": [
      {"measurement": "chromatographic logD", "setting": "[3]", "result": 5.2},
      {"measurement": "solubility kinetic", "setting": "[2]", "result": 113, "unit": "µM"}
    ]},
    {"smiles": "Cc1cccc(OCC(N)CCNS(=O)(=O)c2ccc(Cl)cc2Cl)c1", "note": "(centres undefined)", "values": [
      {"measurement": "IC50", "setting": "[1]", "result": "> 25.1", "unit": "µM"}
    ]},
    {"smiles": "N#Cc1ccc(S(=O)(=O)NCC[C@H](N)COc2ccc(C#N)c(F)c2)c(C(F)(F)F)c1", "values": [
      {"measurement": "MRT", "setting": "[4]", "result": 6.9, "unit": "h"},
      {"measurement": "clearance", "setting": "[5]", "result": 4.7, "unit": "mL/min/kg"},
      {"measurement": "inhibition (INH)", "setting": "Cytochrome P450 3A4", "result": "Active"},
      {"measurement": "bioavailability", "setting": "[6]", "result": 100, "unit": "%"},
      {"measurement": "AUC/dose", "setting": "[7]", "result": 3.7, "unit": "µg·h/mL"},
      {"measurement": "fraction unbound", "setting": "[8]", "result": 0.015}
    ]},
    {"smiles": "N#Cc1ccc(OC[C@@H](N)CCNS(=O)(=O)c2ccc(Cl)cc2Cl)cc1F", "values": [
      {"measurement": "MRT", "setting": "[4]", "result": 7.5, "unit": "h"},
      {"measurement": "clearance", "setting": "[5]", "result": 4.3, "unit": "mL/min/kg"},
      {"measurement": "inhibition (INH)", "setting": "Cytochrome P450 3A4", "result": "Active"},
      {"measurement": "bioavailability", "setting": "[6]", "result": 85, "unit": "%"},
      {"measurement": "AUC/dose", "setting": "[7]", "result": 4.7, "unit": "µg·h/mL"},
      {"measurement": "CL free", "setting": "[9]", "result": 512, "unit": "mL/min/kg"},
      {"measurement": "Cmax", "setting": "[10]", "result": 930, "unit": "ng/mL"},
      {"measurement": "chromatographic logD", "setting": "[3]", "result": 4.5},
      {"measurement": "solubility kinetic", "setting": "[2]", "result": 381, "unit": "µM"},
      {"measurement": "fraction unbound", "setting": "[8]", "result": 0.0084},
      {"measurement": "Vd", "setting": "[11]", "result": 1.8, "unit": "L/kg"}
    ]},
    {"smiles": "C[C@](N)(CCNS(=O)(=O)c1ccc(C#N)cc1C(F)(F)F)COc1ccc(C#N)c(F)c1", "values": [
      {"measurement": "MRT", "setting": "[4]", "result": 7, "unit": "h"},
      {"measurement": "clearance", "setting": "[5]", "result": 37, "unit": "mL/min/kg"},
      {"measurement": "inhibition (INH)", "setting": "Cytochrome P450 3A4", "result": "Not Active"},
      {"measurement": "bioavailability", "setting": "[6]", "result": 100, "unit": "%"},
      {"measurement": "AUC/dose", "setting": "[7]", "result": 0.6, "unit": "µg·h/mL"},
      {"measurement": "fraction unbound", "setting": "[8]", "result": 0.064}
    ]},
    {"smiles": "N#Cc1ccc(N)c(OC[C@@H](N)CCNS(=O)(=O)c2ccc(Cl)cc2Cl)c1", "values": [
      {"measurement": "MRT", "setting": "[4]", "result": 2.3, "unit": "h"},
      {"measurement": "clearance", "setting": "[5]", "result": 38, "unit": "mL/min/kg"},
      {"measurement": "inhibition (INH)", "setting": "Cytochrome P450 3A4", "result": "Active"},
      {"measurement": "bioavailability", "setting": "[6]", "result": 22, "unit": "%"},
      {"measurement": "AUC/dose", "setting": "[7]", "result": 0.1, "unit": "µg·h/mL"},
      {"measurement": "fraction unbound", "setting": "[8]", "result": 0.029}
    ]},
    {"smiles": "N#Cc1ccc(OC[C@@H](N)CCNS(=O)(=O)c2ccc(C(F)(F)F)cc2)cc1F", "values": [
      {"measurement": "IC50", "setting": "[1]", "result": 0.631, "unit": "µM"}
    ]},
    {"smiles": "COc1ccccc1S(=O)(=O)NCC[C@H](N)COc1ccc(C#N)c(F)c1", "values": [
      {"measurement": "IC50", "setting": "[1]", "result": 7.94, "unit": "µM"}
    ]},
    {"smiles": "NC(CCNS(=O)(=O)c1ccc(Cl)cc1Cl)COc1cccc(Cl)c1", "note": "(centres undefined)", "values": [
      {"measurement": "IC50", "setting": "[1]", "result": 12.6, "unit": "µM"}
    ]},
    {"smiles": "N#Cc1ccc(OC[C@@H](N)CCNS(=O)(=O)c2ccccc2C(F)(F)F)cc1F", "values": [
      {"measurement": "IC50", "setting": "[1]", "result": 0.0398, "unit": "µM"}
    ]},
    {"smiles": "N#Cc1ccc(OC[C@@H](N)CCNS(=O)(=O)c2ccccc2OC(F)(F)F)cc1F", "values": [
      {"measurement": "IC50", "setting": "[1]", "result": 0.631, "unit": "µM"}
    ]},
    {"smiles": "CN(CCC(O)COc1ccc(C#N)c(F)c1)S(=O)(=O)c1ccc(Cl)cc1Cl", "note": "(racemic)", "values": [
      {"measurement": "IC50", "setting": "[1]", "result": 10, "unit": "µM"}
    ]},
    {"smiles": "N#Cc1ccc(OCC(N)CCNS(=O)(=O)c2ccc(Cl)cc2Cl)cc1F", "note": "(racemic)", "values": [
      {"measurement": "chromatographic logD", "setting": "[3]", "result": 4.6},
      {"measurement": "solubility kinetic", "setting": "[2]", "result": "≥ 390", "unit": "µM"}
    ]},
    {"smiles": "N#Cc1ccc(OCC(N)CCNS(=O)(=O)c2cccc(Cl)c2)cc1F", "note": "(racemic)", "values": [
      {"measurement": "IC50", "setting": "[1]", "result": 12.6, "unit": "µM"}
    ]},
    {"smiles": "N#Cc1ccc(OCC(N)CCNS(=O)(=O)c2ccccc2)cc1F", "note": "(racemic)", "values": [
      {"measurement": "IC50", "setting": "[1]", "result": 20, "unit": "µM"}
    ]}
  ]
}
